We go through 1 molecule from US8426433B2, priority 2007, dated 2013).

Structures are written as SMILES.

Broadly, the IC50 is the point on the concentration scale where inhibition reaches its midpoint.

In test [1] the test system is clot growth in platelet-free plasma. As to the kind of experiment: Clot growth rate in space (light scattering) in platelet-free plasma. Type of test: biochemical. As to conditions: 1 mcM of the compound in normal plasma versus plasma control, FIG. 9-11. The source says: The clot growth rate in space describes the dynamics of clotting, which is a process that develops over time and across space. This method measures light scattering to determine the size of the clot at different periods of time once clotting has begun. Clotting is activated in the system by an activator precisely localized in space without stirring. The activator was alternatively either a simple glass plate having a ground edge to cause contact activation on the internal path or fibroblast-coated polyethylene terephthalate films provided on the surface with a tissue factor to activate clotting on the external path. […]
Light scattering profiles corresponding to different time moments from the start of the experiment were obtained by processing the series of recorded images. […] The clot size in each frame was determined as the distance from the activator to the clot edge assumed to be the point where light scattering was half the maximum value. […]
The last output processing stage was calculating the clot growth rate on the basis of the light scattering profiles obtained. The clot size was assessed at each point of time as the distance of a respective light scattering profile from the activator (at half-point of the maximum profile height). […] The quasi-stationary growth rate of the clot was calculated from the inclination angle of the linear portion of the curve.

The test system of test [2] is endogenous thrombin potential in normal donor plasma (PPP). Put plainly: Thrombin generation test (endogenous thrombin potential) in normal donor plasma. In kind it is biochemical. As to conditions: read-out: IC50 (50% reduction in endogenous thrombin potential). From the text: This method was described in detail in many papers (Hemker H C, Giesen P L, Ramjee M, Wagenvoord R, Beguin S. The thrombogram: monitoring thrombin generation in platelet-rich plasma. Thromb. Haemost., 2000; 83(4): 589-591; Hemker H C, AlDieri R, Beguin S. Thrombin generation assays: accruing clinical relevance. Curr. Opin. Hematol., 2004, 11(3):170-175; Hemker H C, Giesen P, AlDieri R, Regnault V, de Smed E, Wagenvoord R, Lecompte T, Beguin S. The calibrated automated thrombogram (CAT): a universal routine test for hyper- and hypocoagulability. Pathophysiol. Haemost. Thromb., 2002, 32(5-6):249-253). The test is used to measure the kinetics and total quantity of active thrombin generated in a plasma sample over a specified time at a standard clotting activation level in the sample. These applicants' method is suitable for measuring thrombin concentration using a slow-action fluorogenic substrate (BOC-Ile-Gly-Arg-AMC), which gives a highly fluorescent product, 7-amino-4-methylcoumarin (AMC), when broken d own by thrombin. The use of a fluorogenic, rather than chromogenic, substrate is dictated by the fact that the fluorescence level in the sample is virtually unaffected by the solid fibrin clot formed in the metering cell, but this is a qualification that restricts the application of a chromogenic substrate (Hemker H C, Giesen P, AlDieri R, Regnault V, de Smed E, Wagenvoord R, Lecompte T, Beguin S. The calibrated automated thrombogram (CAT): a universal routine test for hyper- and hypocoagulability. Pathophysiol. Haemost. Thromb., 2002, 32(5-6):249-253). On the other hand, it is common knowledge that the bulk of thrombin (about 95%) in the sample is generated after the first clot has already formed (Hemker H C, AlDieri R, Beguin S. Thrombin generation assays: accruing clinical relevance. Curr. Opin. Hematol., 2004, 11(3):170-175).
The kinetics of thrombin generation and ultimately loss in plasma after clotting activation is shown in FIG. 1, which illustrates the relationship between concentration of active thrombin in a plasma sample and time. The area under the thrombin generation time curve (in this invention, from 0 to 50 minutes of incubation) is called endogenous thrombin potential (ETP). The curve is further characterized by tmax, the time when thrombin in the sample reaches maximum concentration, Amax, the maximum thrombin concentration in the system, and tlag, the time before clotting commencement, which is conventionally the time when thrombin reaches a concentration of 5 nM.
Obviously, important clotting information is contained in the shape of thrombin concentration to time curves, as well as the integral ETP level. In particular, against the background of low factor and clotting inhibitor concentration, thrombin concentration maximums can be lower and also broader, although the total ETP might not change at all. The presence of additional thrombin inhibitors in plasma must reduce ETP and maximum attainable thrombin concentration, and increase the clotting lag and the time required for thrombin to achieve maximum concentration.
Measurements were taken as follows: 90 microliters of normal donor plasma (PPP), 0 to 20 microliters of the test substance solution, and 20 to 0 microliters of buffering solution (20 mM of HEPES, 140 mM of NaCal, pH 7.5) were deposited in the holes of a 96 hole board so that the total volume of added substance and buffer is always 20 microliters. Whereupon 20 microliters of a fluorogenic substrate solution (at 5 mM initial concentration) was added to each of the board holes, and plasma was heated for 3 to 5 minutes at 37° C. Next, 25 microliters of a clotting activator solution was added simultaneously (using a multichannel pipette) to all the holes. A thromboplastin solution prepared from a standard thromboplastin reagent diluted to 1/250th of its original concentration by the same buffer further containing 80 mM of CaCl2 to measure the prothrombin time (PT) (RENAM, Russia) was used as activator. […]

For the molecule `Cc1cc(OCC[n+]2ccc(N)cc2)cc(OS(=O)(=O)c2ccccc2Cl)c1.[I-]` [HC-025s-IOC, 4-amino-1-(2-(3-methyl-5-(2-chlorobenzenesulfonyloxy)phenoxy)ethyl)-pyridinium iodide], in test [1], the “Spatial clot growth dynamics (clot size versus time)” value was “inhibits clotting”. The half-maximal inhibitory concentration (IC50) in test [2] was 260 nM.
